Assay results reported in patent US7507839B2, “Therapeutic ion channel blocking agents and methods of use thereof” (The Walter and Eliza Hall Institute of Medical Research, priority 2002, dated 2009).
Values belong to the molecule of their own block, whether it stands above or below them.

Tests used:
Kv1.3 = Kv1.3 (UniProt P16390); experiment: Whole-cell patch-clamp block of Kv1.3 current; format: cell-based; details: for Kd: L929 cells stably expressing mKv1.3 or activated human T cells, fit of normalized peak current to Hill equation
Procedure: The effectiveness of the generated compounds in blocking the Kv1.3 current was assayed on L929 cells stably expressing mKv1.3 or on activated human T cells. The generation of this cell line has been previously described (Grissmer et al. (1995) Mol. Pharmacol. 45: 1227). The cells were grown in Dulbecco's modified Eagle's medium containing 10% fetal calf serum, 2 mM L-glutamine, 1 mM Na^+ pyruvate, 100 units/ml penicillin, 100 μg/ml streptomycin and 250 μg G418 (to keep them under selection pressure). The cells were studied in the whole-cell configuration of the patch-clamp technique. The holding potential in all experiments was −80 mV. Currents were recorded in normal Ringer solution (160 mM NaCl, 4.5 mM KCl, 2 mM CaCl2, 1 mM MgCl2, 10 mM HEPES, pH 7.4, 290-310 mOsm) with an internal pipette solution containing 134 mM KF, 2 mM MgCl2, 10 mM HEPES, 10 mM EGTA (pH 7.2, 290-310 mOsm). If currents exceeded 2 nA 60-80% series resistance compensation was used. 200-ms depolarising pulses to 40 mV were applied every 30 s (Grissmer at al. (1995) Mol. Pharmacol. 45: 1227). Each compound was tested twice at two different concentrations. Kd values were determined by fitting the reduction of the normalized peak current to the Hill equation. […]

Kv1.2 = Kv1.2 (Homo sapiens, UniProt P16389); experiment: Whole-cell patch-clamp, Kv1.2; format: cell-based
Kv1.2, sequence (P16389 whole entry): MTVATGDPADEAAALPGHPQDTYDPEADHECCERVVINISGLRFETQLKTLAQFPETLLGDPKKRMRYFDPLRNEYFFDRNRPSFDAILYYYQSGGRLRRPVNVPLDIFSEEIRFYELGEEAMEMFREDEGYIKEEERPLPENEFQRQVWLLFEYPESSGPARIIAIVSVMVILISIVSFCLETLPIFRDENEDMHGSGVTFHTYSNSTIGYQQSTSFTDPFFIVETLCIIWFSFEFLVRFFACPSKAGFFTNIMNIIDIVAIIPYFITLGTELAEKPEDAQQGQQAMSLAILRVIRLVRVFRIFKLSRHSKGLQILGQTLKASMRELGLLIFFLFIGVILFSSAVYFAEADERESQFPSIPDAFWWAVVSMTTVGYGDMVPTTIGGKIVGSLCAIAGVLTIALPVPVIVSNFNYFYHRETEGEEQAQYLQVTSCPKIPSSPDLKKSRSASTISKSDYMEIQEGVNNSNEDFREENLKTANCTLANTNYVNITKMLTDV

[1] = Solubility in aqueous media; format: physicochemical; details: judged by whether testable in the cell-based T-cell proliferation assay
Excerpt: (§1) The comparative example 4 was thus considered to lack therapeutically use.
This was unexpected given the lipophilicity of these compounds. The n-butyl fragment in example 2 is considerably more lipophilic than the phenyl group located in the equivalent position of comparative example 4 (fragment hydrophobicity value 2.5 verses 1.9 respectively).

[2] = system: peripheral blood mononuclear cells; experiment: [3H]-Thymidine incorporation assay; format: cell-based, human; details: anti-CD3 stimulated PBMC, 48 h; for Normalised [3H]-TdR incorporation: untreated control = 1
Procedure: [^3H]-thymidine incorporation is a widely used test to assay the proliferative activity of human and rodent lymphocytes. As cells divide [^3H]-thymidine will be incorporated into the newly synthesised DNA of the resulting daughter cells. The faster cells grow the more radioactive [^3H]-thymidine will be incorporated. Any compound that inhibits lymphocytes proliferation will reduce the uptake of radioactivity by the cells treated with it compared to the untreated controls.
Example 2 was tested to determine its ability to inhibit [H]-thymidine incorporation. Resting peripheral blood mononuclear cells from healthy volunteers were seeded at 2×10^5 cells per well in medium (RPMI 1640 supplemented 10% fetal calf serum, 2 mM glutamine, 1 mM sodium pyruvate, 1% nonessential amino acids, 100 units/ml penicillin, 100 μg/ml streptomycin and 50 μM β-mercaptoethanol) in flat-bottom 96 well plates (final volume 200 μl). Cells were pre-incubated with the compound of example 2 for 60 min, and were stimulated with 5 ng/ml anti-CD3 Ab) for 48 h. [^3H]-Thymidine (1 μCi per well) was added for the last 6 h. Cells were harvested onto glass fibre filters and radioactivity measured in a scintillation counter. All experiments were done in triplicate.

Kv1.1 = Kv1.1 (Homo sapiens, UniProt Q09470); experiment: Whole-cell patch-clamp, Kv1.1; format: cell-based
Kv1.1, sequence (Q09470 whole entry): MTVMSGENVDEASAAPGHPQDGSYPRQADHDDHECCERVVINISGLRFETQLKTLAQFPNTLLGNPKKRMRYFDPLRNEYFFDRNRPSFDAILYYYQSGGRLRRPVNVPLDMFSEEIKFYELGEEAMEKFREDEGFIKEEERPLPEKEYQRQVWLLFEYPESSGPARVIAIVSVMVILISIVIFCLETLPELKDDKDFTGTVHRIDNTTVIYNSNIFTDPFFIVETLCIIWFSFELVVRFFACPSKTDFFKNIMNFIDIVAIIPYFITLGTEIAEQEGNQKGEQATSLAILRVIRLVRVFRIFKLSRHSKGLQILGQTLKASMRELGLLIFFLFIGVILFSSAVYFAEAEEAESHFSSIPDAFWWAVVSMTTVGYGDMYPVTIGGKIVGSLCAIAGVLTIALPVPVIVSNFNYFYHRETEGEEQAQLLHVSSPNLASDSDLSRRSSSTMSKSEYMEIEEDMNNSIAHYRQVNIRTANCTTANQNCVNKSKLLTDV

Kv1.5 = Kv1.5 (Homo sapiens, UniProt P22460); experiment: Whole-cell patch-clamp, Kv1.5; format: cell-based
Kv1.5, sequence (P22460 whole entry): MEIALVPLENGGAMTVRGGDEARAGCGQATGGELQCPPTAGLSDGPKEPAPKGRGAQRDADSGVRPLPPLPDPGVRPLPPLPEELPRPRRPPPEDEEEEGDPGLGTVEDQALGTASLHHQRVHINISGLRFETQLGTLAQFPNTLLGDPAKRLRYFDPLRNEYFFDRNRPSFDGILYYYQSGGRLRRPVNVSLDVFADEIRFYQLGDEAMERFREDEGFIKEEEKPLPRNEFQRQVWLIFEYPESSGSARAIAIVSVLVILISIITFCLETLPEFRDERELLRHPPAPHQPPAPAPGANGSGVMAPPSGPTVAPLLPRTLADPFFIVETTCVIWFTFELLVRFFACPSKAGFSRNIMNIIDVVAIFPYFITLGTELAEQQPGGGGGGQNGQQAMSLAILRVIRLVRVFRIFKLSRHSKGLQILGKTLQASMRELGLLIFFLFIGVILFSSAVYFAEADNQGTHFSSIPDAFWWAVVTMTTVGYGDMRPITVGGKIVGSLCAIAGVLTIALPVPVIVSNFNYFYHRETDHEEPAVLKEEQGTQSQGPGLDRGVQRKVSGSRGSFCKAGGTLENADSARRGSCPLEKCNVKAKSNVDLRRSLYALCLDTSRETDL

SKMI = SKMI (Homo sapiens, UniProt P35499); experiment: Whole-cell patch-clamp, SKMI; format: cell-based; details: at 10 μM
SKMI, sequence (P35499 whole entry): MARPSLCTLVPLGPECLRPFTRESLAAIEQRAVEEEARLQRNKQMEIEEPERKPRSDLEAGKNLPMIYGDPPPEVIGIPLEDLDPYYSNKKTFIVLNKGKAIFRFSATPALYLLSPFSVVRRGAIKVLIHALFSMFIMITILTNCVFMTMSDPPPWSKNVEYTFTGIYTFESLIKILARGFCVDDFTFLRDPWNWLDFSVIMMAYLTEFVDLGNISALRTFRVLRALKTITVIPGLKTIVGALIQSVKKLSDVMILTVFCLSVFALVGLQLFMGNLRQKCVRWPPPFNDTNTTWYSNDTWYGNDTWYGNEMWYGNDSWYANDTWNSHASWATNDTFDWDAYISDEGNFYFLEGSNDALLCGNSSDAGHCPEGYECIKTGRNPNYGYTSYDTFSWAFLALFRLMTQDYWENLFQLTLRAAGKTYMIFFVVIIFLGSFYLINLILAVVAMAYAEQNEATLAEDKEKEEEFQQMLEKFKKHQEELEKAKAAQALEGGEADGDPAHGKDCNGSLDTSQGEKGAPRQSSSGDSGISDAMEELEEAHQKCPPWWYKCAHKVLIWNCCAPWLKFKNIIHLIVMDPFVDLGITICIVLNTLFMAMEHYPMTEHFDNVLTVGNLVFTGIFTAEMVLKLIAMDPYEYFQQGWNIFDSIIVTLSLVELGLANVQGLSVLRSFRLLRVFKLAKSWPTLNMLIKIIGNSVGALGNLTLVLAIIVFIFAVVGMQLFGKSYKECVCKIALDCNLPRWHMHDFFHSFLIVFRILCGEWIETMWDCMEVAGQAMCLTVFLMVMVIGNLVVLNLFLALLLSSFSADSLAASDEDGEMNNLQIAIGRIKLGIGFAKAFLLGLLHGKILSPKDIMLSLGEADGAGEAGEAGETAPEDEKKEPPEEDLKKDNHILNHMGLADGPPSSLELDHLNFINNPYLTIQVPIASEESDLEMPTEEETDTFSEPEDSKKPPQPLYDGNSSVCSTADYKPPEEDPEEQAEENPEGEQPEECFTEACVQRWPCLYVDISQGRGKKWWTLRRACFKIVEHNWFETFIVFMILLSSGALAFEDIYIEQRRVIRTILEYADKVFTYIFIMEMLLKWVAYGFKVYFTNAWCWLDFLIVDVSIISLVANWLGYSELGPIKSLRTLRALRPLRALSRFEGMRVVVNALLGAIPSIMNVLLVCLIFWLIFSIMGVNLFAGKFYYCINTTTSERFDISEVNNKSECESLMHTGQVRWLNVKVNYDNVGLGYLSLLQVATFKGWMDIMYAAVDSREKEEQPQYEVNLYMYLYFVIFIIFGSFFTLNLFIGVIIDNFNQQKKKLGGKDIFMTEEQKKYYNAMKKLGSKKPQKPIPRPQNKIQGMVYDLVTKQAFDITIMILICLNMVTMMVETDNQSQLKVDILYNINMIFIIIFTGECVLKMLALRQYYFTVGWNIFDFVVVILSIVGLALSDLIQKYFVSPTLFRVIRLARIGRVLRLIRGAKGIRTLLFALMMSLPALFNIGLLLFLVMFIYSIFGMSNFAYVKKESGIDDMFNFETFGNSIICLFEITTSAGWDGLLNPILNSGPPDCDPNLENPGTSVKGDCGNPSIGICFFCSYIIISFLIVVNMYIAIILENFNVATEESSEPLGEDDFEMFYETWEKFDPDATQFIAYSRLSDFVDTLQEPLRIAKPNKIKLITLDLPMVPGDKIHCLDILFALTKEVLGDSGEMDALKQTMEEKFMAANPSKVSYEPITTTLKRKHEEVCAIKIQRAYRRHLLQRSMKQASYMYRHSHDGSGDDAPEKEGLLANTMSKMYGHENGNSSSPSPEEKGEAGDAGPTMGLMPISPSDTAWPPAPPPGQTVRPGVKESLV

IKCa1 = IKCa1 (Homo sapiens, UniProt O15554); experiment: Whole-cell patch-clamp, IKCa1; format: cell-based
Kv1.4 = Kv1.4 (Homo sapiens, UniProt P22459); experiment: Whole-cell patch-clamp, Kv1.4; format: cell-based
Kv1.4, sequence (P22459 whole entry): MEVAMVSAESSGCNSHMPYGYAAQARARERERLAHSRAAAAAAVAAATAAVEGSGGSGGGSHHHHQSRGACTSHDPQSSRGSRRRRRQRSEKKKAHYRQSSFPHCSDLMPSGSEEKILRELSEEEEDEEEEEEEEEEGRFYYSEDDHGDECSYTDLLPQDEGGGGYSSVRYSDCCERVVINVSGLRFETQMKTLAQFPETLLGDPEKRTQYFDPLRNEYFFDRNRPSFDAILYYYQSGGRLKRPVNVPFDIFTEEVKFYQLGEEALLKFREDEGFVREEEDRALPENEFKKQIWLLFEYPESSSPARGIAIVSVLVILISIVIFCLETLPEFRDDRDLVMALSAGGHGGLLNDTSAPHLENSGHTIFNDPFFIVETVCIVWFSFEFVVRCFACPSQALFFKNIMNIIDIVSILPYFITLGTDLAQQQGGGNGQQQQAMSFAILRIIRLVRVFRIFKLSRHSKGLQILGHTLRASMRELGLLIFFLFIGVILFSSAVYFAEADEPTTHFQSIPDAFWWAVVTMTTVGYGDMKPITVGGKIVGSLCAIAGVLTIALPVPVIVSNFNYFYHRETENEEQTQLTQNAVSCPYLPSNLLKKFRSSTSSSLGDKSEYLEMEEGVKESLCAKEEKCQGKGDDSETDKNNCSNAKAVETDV

Stability = format: physicochemical
Excerpt: as §1

Kd (Kv1.3): 820 nM | Kd (Kv1.2): 1500 nM
SMILES: COc1c(C(C)=O)c(OCCCCCOc2c(C(C)=O)c(OC)c3ccoc3c2OC)c(OC)c2occc12 [Example 1]
Solubility in aqueous media [1]: soluble enough in aqueous media to be tested

Kd (Kv1.3): 560 nM
SMILES: COc1c(C(C)=O)c(OCc2cccc(COc3c(C(C)=O)c(OC)c4ccoc4c3OC)c2)c(OC)c2occc12 [compound 5, reference compound]

EC50 ([2]; Homo sapiens, read-out: EC50, inhibition of [3H]-thymidine incorporation): ~800 nM | Kind of block (Kv1.3) (Kv1.3): Block phasic | Kd (Kv1.3): 680 nM | Kd (Kv1.2): 250 nM | Kd (Kv1.1): 320 nM
SMILES: COc1c(C(C)=O)c(OCCCCCCOc2c(C(C)=O)c(OC)c3ccoc3c2OC)c(OC)c2occc12 [Example 2]
Normalised [3H]-TdR incorporation ([2]; 100 nM): 0.86 +/− 0.04 | Normalised [3H]-TdR incorporation ([2]; 250 nM): 0.76 +/− 0.06 | Normalised [3H]-TdR incorporation ([2]; 1 μM): 0.38 +/− 0.05 | Normalised [3H]-TdR incorporation ([2]; 10 μM): 0.01 +/− 0.003 | Solubility in aqueous media [1]: soluble enough in aqueous media to be tested

Kd (Kv1.3): 17000 nM
SMILES: O=c1ccc2cc3ccoc3c(OCc3ccc(COc4c5occc5cc5ccc(=O)oc45)cc3)c2o1 [compound 3, reference compound]

Kd (Kv1.3): 1100 nM | Effect on Kv1.2 (Kv1.2; at 5 μM): No effect
SMILES: COc1c(C(C)=O)c(OCc2ccc(COc3cc4occc4c(OC)c3C(C)=O)cc2)cc2occc12 [Example 4, 1,4-bis(5-acetyl-4-methoxybenzofuran-6-yloxymethyl)benzene]

Kd (Kv1.3): 5000 nM
SMILES: COc1c(C(C)=O)c(OCc2ccc(COc3c(C(C)=O)c(OC)c4ccoc4c3OC)c(C(=O)O)c2)c(OC)c2occc12 [Example 8, 2,5-Bis(5-acetyl-4,7-dimethoxybenzofuran-6-yloxymethyl)benzoic acid]

Kd (Kv1.3): 7000 nM
SMILES: COc1c(C(C)=O)c(OCc2ccccc2COc2c(C(C)=O)c(OC)c3ccoc3c2OC)c(OC)c2occc12 [compound 6, reference compound]

Kd (Kv1.3): 3000 nM | melting point: 87 to 89 °C
SMILES: COC(=O)c1cc(COc2c(C(C)=O)c(OC)c3ccoc3c2OC)ccc1COc1c(C(C)=O)c(OC)c2ccoc2c1OC [Example 7, 2,5-Bis(5-acetyl-4,7-dimethoxy-6-benzofuran-6-yloxymethyl)benzoic acid, methyl ester]

Kd (Kv1.3): 70000 nM
SMILES: COc1c(C(C)=O)c(O)c(OC)c2occc12 [Comparative Example 1 (Khellinone)]

Kd (Kv1.3): 4000 nM
SMILES: COc1c(C(C)=O)c(OCCOCCOc2c(C(C)=O)c(OC)c3ccoc3c2OC)c(OC)c2occc12 [Example 5]
Solubility in aqueous media [1]: significantly more soluble in aqueous conditions than comparative example 2

Kd (Kv1.5): 1100 nM | Effect on SKMI (SKMI): No effect | Kd (Kv1.3): 280 nM | Kd (Kv1.2): 5000 nM | Kd (IKCa1): > 20000 nM | Kd (Kv1.4): 2200 nM | Stability (Stability): good stability | Kd (Kv1.1): 3000 nM
SMILES: COc1c(C(C)=O)c(OCc2ccc(COc3c(C(C)=O)c(OC)c4ccoc4c3OC)cc2)c(OC)c2occc12 [compound 4]
Solubility in aqueous media [1]: so poorly soluble in aqueous media

Kd (Kv1.3): 160000 nM
SMILES: COc1c2occc2cc2ccc(=O)oc12 [Comparative Example 2 (3-MOP)]
